Reference: ChEMBL document CHEMBL3507680, “University of Dundee, Gates Library screen for HepG2 cell viability”

Assay: Human HepG2 cell viability assay in 384 well format
Format: toxicity, cell-based
Design: dose 125 nL, time 70.5 hour; cytotoxicity at 70.5 h: concentration not given beside the values
Conditions: HepG2 cells, read-out: Inhibition

O=C1CC(c2ccc(C(F)(F)F)cc2)c2snc(C(=O)O)c2N1 (configuration not stated)
cytotoxicity at 70.5 h: -15.6%

COc1ccc2c(=O)ccn(CC(=O)O)c2c1
cytotoxicity at 70.5 h: 1.58%

COC(=O)CCn1ccc(=O)c2ccccc21
cytotoxicity at 70.5 h: -5.76%

CN1CCN(C(=O)c2cc(-c3cccs3)cs2)CC1
cytotoxicity at 70.5 h: -10.5%

O=C(NC1CCS(=O)(=O)C1)c1cc(Sc2ncccn2)ccn1 (configuration not stated)
cytotoxicity at 70.5 h: -13.4%

Cc1cc(C)n(CC(=O)Nc2cc(-c3ccncc3)[nH]n2)n1
cytotoxicity at 70.5 h: -4.82%

Cc1ccn(CC(=O)Nc2cc(-c3ccncc3)[nH]n2)n1
cytotoxicity at 70.5 h: -2.4%

O=C(c1ccc(-c2ccc(O)nc2)s1)N1CCSCC1
cytotoxicity at 70.5 h: -14%

Cc1ncc(CN2CCCC(c3nc4ccccc4n3C(C)C)C2)s1 (configuration not stated)
cytotoxicity at 70.5 h: -2.93%

Cc1cc(N(C)C)nc(C2(C)CCCN2C(=O)c2ccn(C)n2)n1 (configuration not stated)
cytotoxicity at 70.5 h: -9.18%

Cc1ccc(-c2nnc(SCC(=O)O)n2-c2ccccc2)cc1
cytotoxicity at 70.5 h: -10.9%

Cc1cnc(N)c(C(=O)C2CCN(C(=O)c3cnc(C)nc3C)CC2)c1
cytotoxicity at 70.5 h: -6.36%

Cc1cnc(N)c(C(=O)C2CCN(C(=O)c3cnc(C)cn3)CC2)c1
cytotoxicity at 70.5 h: -13%

NCc1cnn(-c2ccccc2C(=O)NCc2ccccc2Cl)c1
cytotoxicity at 70.5 h: -2.58%

COCCN1CCC(c2cncc(-c3cccc(Cl)c3)n2)CC1
cytotoxicity at 70.5 h: -5.78%

CN(C)C(=O)CN1CCC(c2cncc(-c3cccc(Cl)c3)n2)CC1
cytotoxicity at 70.5 h: -7.08%

CC(C)(C)C(=O)N1CCCC(c2ncncc2-c2ccncc2)C1 (configuration not stated)
cytotoxicity at 70.5 h: -4.45%

O=C(c1cccnc1)N1CCCC(c2ncncc2-c2ccncc2)C1 (configuration not stated)
cytotoxicity at 70.5 h: -5.25%

O=C(c1ccccn1)N1CCCC(c2ncncc2-c2ccncc2)C1 (configuration not stated)
cytotoxicity at 70.5 h: -9.39%

COc1cc(C2Nc3cc(Cl)ccc3C3=NCCN32)cc(OC)c1OC (configuration not stated)
cytotoxicity at 70.5 h: 13.6%

COc1ccc(C2Nc3cc(Cl)ccc3C3=NCCN32)cc1CO (configuration not stated)
cytotoxicity at 70.5 h: 9.73%

Cc1cc(-c2cnc(N3CCNC(=O)C3)nc2-c2ccncc2)on1
cytotoxicity at 70.5 h: 7.7%

CN1CCN(c2ncc(-c3cnccn3)c([C@H]3CCCO3)n2)CC1
cytotoxicity at 70.5 h: -8.8%

Cc1n[nH]c(C)c1-c1cnc(C2CCN(S(C)(=O)=O)CC2)cn1
cytotoxicity at 70.5 h: -6.98%

CC(=O)N1CCC(c2cnc(-c3c(C)nn(C)c3C)cn2)CC1
cytotoxicity at 70.5 h: -9.85%

Cc1cc(CCC(N)=O)cc(C2CCCN2Cc2ccccn2)n1 (configuration not stated)
cytotoxicity at 70.5 h: -9.69%

CC(=O)N1CCCC(c2ccccn2)C1 (configuration not stated)
cytotoxicity at 70.5 h: 8.66%

Cc1nc(C2CN(C)CCO2)cc(N2CCC(CO)CC2)n1 (configuration not stated)
cytotoxicity at 70.5 h: -4.15%

NCCn1nc(C2CCN(Cc3ccccc3)C2)c2nccnc21 (configuration not stated)
cytotoxicity at 70.5 h: 0.0423%

CCCC(=O)N1CCC(c2ncc3c(n2)CCNC3)CC1
cytotoxicity at 70.5 h: -5.64%

CCC(=O)N1CCC(Cc2ccccc2-c2ccncc2)(C(=O)NC)C1 (configuration not stated)
cytotoxicity at 70.5 h: -7.46%

CN1CCCCC1c1ncc2c(n1)CCN(Cc1ccc(F)cc1)C2 (configuration not stated)
cytotoxicity at 70.5 h: -5.99%

CCCC(=O)N1CCC(Cc2ccccc2-c2ccccc2)(C(N)=O)C1 (configuration not stated)
cytotoxicity at 70.5 h: -6.16%

COc1cc(C)c(CN2CCc3nc4ccsc4c(=O)n3CC2)cc1C
cytotoxicity at 70.5 h: 0.311%

COc1ccc(CN2CCc3nc4ccsc4c(=O)n3CC2)c(C)c1C
cytotoxicity at 70.5 h: 39.8%

CC[C@@H]1C[C@H](C(F)(F)F)n2nc(C3CCN(S(=O)(=O)CC)CC3)cc2N1
cytotoxicity at 70.5 h: 18.8%

CCC(=O)N1CCC2(CC1)CNC(=O)c1cc(C)ccc1O2
cytotoxicity at 70.5 h: -1.62%

Cc1ccc2c(c1)C(=O)NCC1(CCN(Cc3ccccc3)CC1)O2
cytotoxicity at 70.5 h: -6.17%

O=C(Cc1ccccn1)N1CCC(O)(Cn2ccc3ccncc32)CC1
cytotoxicity at 70.5 h: -6.87%

Cc1cc2c(=O)n3c(nc2s1)CCN(C(=O)c1cn(C)nc1C)CC3
cytotoxicity at 70.5 h: -1.48%

Cc1cc(C(=O)N2CCc3nc4sc(C)cc4c(=O)n3CC2)on1
cytotoxicity at 70.5 h: -2.99%

Cc1nc(C)c(C(=O)N2CCc3nc4sc(C)cc4c(=O)n3CC2)o1
cytotoxicity at 70.5 h: -4.92%

Cc1cc2c(=O)n3c(nc2s1)CCN(C(=O)c1ccn(C)n1)CC3
cytotoxicity at 70.5 h: -5.05%

Cc1cc2c(=O)n3c(nc2s1)CCN(C(=O)c1cnn(C)c1)CC3
cytotoxicity at 70.5 h: -7.07%

Cc1cc2c(=O)n3c(nc2s1)CCN(C(=O)c1sc(C)nc1C)CC3
cytotoxicity at 70.5 h: -2.56%

C[C@@H]1C[C@H](C(F)(F)F)n2nc(C3CCN(C(=O)C(C)(C)C)CC3)cc2N1
cytotoxicity at 70.5 h: -6.86%

COCC(=O)N1CCC(c2cc3n(n2)[C@@H](C(F)(F)F)C[C@@H](C)N3)CC1
cytotoxicity at 70.5 h: -8.82%

O=S1(=O)NC(C2CCN(Cc3ccccn3)CC2)Nc2ccccc21 (configuration not stated)
cytotoxicity at 70.5 h: -9.26%

Cc1ccc(S(=O)(=O)N2C[C@H]3C[C@H](NC(=O)c4ccccn4)[C@H]3C2)cc1
cytotoxicity at 70.5 h: 56.3%

COc1cccc(CNC(=O)c2ccccc2-n2cc(CN)cn2)c1
cytotoxicity at 70.5 h: -2.7%

Cn1cnc(CNC(=O)c2ccccc2-n2cc(CN)cn2)c1
cytotoxicity at 70.5 h: -5.11%

O=C(O)COc1ccccc1CN1CCCC1c1ccncn1 (configuration not stated)
cytotoxicity at 70.5 h: -6.02%

COc1ccc(OC)c(CN2CCc3nc4ccsc4c(=O)n3CC2)c1
cytotoxicity at 70.5 h: 38.7%

CCc1ccc(CN2CCC3(CCCN(C(=O)c4cnccn4)C3)C2)o1 (configuration not stated)
cytotoxicity at 70.5 h: 2.89%

Cc1cc(C[C@@H]2COC[C@H]2NCc2ccc(C(C)C)cc2)on1
cytotoxicity at 70.5 h: -8.05%

COc1cc(CN[C@@H]2COC[C@H]2Cc2cc(C)no2)cc(OC)c1
cytotoxicity at 70.5 h: -6.2%

CCn1[nH]c(C)c2c(C(F)(F)C(F)(F)F)cc(=O)nc1-2
cytotoxicity at 70.5 h: -1.83%
